The values below come from US10653688B2, “6-(6-membered heteroaryl and aryl)isoquinolin-3-yl carboxamides and preparation and use thereof” (Samumed, LLC, priority 2017, dated 2020).

The target of assay [1] is recombinant DYRK1A kinase (Homo sapiens (Human), UniProt Q13627). The assay is described as follows: DYRK1A kinase assay (Ser/Thr 18 peptide Z-lyte, FRET).
The target in a further assay is recombinant GSK3β kinase (Homo sapiens (Human), UniProt P49841). The assay is described as follows: GSK3β kinase assay (Ser/Thr 09 peptide Z-lyte, FRET).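 Also: FRET read-out as coumarin over fluorescein emission ratio, compounds incubated one hour at room temperature, IC50 from dose-response curve fit.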 It counts as biochemical.
Sequence of recombinant GSK3β kinase (P49841 whole entry): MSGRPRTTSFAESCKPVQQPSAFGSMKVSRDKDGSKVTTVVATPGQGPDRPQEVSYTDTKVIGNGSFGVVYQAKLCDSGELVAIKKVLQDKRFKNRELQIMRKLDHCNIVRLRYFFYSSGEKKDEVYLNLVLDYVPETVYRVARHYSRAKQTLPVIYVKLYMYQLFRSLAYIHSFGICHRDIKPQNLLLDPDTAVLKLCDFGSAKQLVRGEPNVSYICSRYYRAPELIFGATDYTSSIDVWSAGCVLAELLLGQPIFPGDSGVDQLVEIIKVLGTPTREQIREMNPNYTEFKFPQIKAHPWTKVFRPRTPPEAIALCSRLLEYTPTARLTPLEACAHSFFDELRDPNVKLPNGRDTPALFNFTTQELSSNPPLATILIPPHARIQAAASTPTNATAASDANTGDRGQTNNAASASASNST
Assay [2] concerns Wnt activity (SW480 colon carcinoma cells stably expressing the Sp5-Luc reporter gene). The assay is described as follows: Wnt activity screening assay (Sp5-Luc reporter gene assay). Conditions: Homo sapiens, 36 to 48 hours. It counts as cell-based, human. A digest of the protocol: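 EC50 values come from a variable-slope four-parameter fit of luminescence normalized to DMSO-only wells. The read-out follows 36–48 h incubation at 37 °C, 5% CO2, in DMEM containing 1% fetal bovine serum. Cells are hygromycin-selected SW480 stably expressing firefly luciferase under a Wnt-responsive Sp5 promoter (eight TCF/LEF sites).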

The subject of assay [3] is IL-6 in human peripheral blood mononuclear cells (huPBMCs). The assay is described as follows: IL-6 inhibition in LPS-stimulated human peripheral blood mononuclear cells (HTRF). It counts as cell-based. Conditions: Homo sapiens, PBMC, LPS 50 ng/mL, 22 hours, IL-6 HTRF. A digest of the protocol: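 Compound-treated huPBMCs (1×10e6 cells/mL, 1% FBS-RPMI) were stimulated after 2 h with LPS (50 ng/mL) for another 22 h at 37° C. An anti-IL-6 HTRF pair reported IL-6 as the 665/620 nm ratio; activity relative to DMSO, EC50 by 4-parameter Levenberg-Marquardt fitting, duplicates.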

Assay [4] deals with SW480 colon carcinoma cells. Put plainly: Cell viability assay (CellTiter-Glo). It counts as cell-based, human. Conditions: Homo sapiens, 96 h, four days, CellTiter-Glo.
The test system of assay [5] is LL29 cells (primary human fibroblasts derived from IPF patients), α-smooth muscle actin. Put plainly: Inhibition of fibrotic process: TGF-β1-treated primary human fibroblasts, αSMA staining.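 Also: controls were TGF-β1-stimulated wells with DMSO vehicle as the positive reference and cells given DMSO alone as the negative reference.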 Conditions: Homo sapiens, Fibroblast, 96 h, TGF-β1 20 ng/mL, 4 days, % cells positive for αSMA. It counts as cell-based.
Experimental: Representative compounds were screened using primary human fibroblasts (derived from IPF patients) treated with TGF-β1 to determine their ability to inhibit the fibrotic process.
Human Fibroblast Cell Culture:
Each compound was dissolved in DMSO as a 10 mM stock and used to prepare compound source plates. […] LL29 cells were plated at 1,500 cells/well in 70 μL/well F12 medium supplemented with 1% Fetal Bovine Serum. […] Wells treated with TGF-β1 and containing DMSO were used as positive control, and cells with only DMSO were negative control. Cells were incubated at 37° C. and 5% CO2 for 4 days. Following incubation for 4 days, SYTOX green nucleic acid stain (Life Technologies [Thermo Fisher Scientific]) was added to the wells at a final concentration of 1 μM and incubated at room temperature for 30 min. Cells were then fixed using 4% formaldehyde (Electron Microscopy Sciences), washed 3 times with PBS followed by blocking and permeabilization using 3% Bovine Serum Albumin (BSA; Sigma) and 0.3% Triton X-100 (Sigma) in PBS.
[6] abbreviates: DYRK1A kinase, head says EC50, method says IC50, ATP 30 μM.
Setting [7] is: GSK3β kinase, head says EC50, method says IC50, ATP 46 μM.

Like-named read-outs stand apart in the source and are kept apart here.

Experimental for recombinant GSK3β kinase: Each compound is dissolved in DMSO as a 10 mM stock and used to prepare compound source plates. Serial dilution (1:3, 11-point dose-response curves from 10 M to 0.0003 M) and compound transfer was performed using the ECHO 550 (Labcyte, Sunnyvale, Calif.) into 1536-well black-walled round bottom plates (Corning).
This is a non-radioactive assay using fluorescence resonance energy transfer (FRET) between coumarin and fluorescein to detect kinase activity which is represented as ratio of coumarin emission/fluorescein emission.
The mixture is allowed to incubate with the representative compounds for one hour at room temperature. All reactions were performed in duplicate. Unphosphorylated (“0% Control”) and phosphorylated (“100% control”) forms of Ser/Thr 18 serve as control reactions.
After incubation, diluted Development Buffer is added to the reaction and allowed to further incubate for one hour at room temperature.
Dose-response curves are generated and inhibitory concentration (IC50) values are calculated using non-linear regression curve fit in the Dotmatics' Studies Software (Bishops Stortford, UK).

For `CC(C)Nc1cncc(-c2ccc3cnc(NC(=O)c4cccc(C5CCN(C)CC5)c4)cc3c2)n1` [Compound 93, N-(6-(6-(Isopropylamino)pyrazin-2-yl)isoquinolin-3-yl)-3-(1-methylpiperidin-4-yl)benzamide], the EC50 was 1 nM in assay [1] (setting [6]); 6550 nM on recombinant GSK3β kinase (setting [7]); 132 nM in assay [2]; 811 nM in assay [3]; 171 nM in assay [4]; 2240 nM in assay [5].

For the compound `CC(C)Nc1cncc(-c2ccc3cnc(NC(=O)c4cn(C5CCNCC5)nn4)cc3c2)n1` [Compound 94, N-(6-(6-(isopropylamino)pyrazin-2-yl)isoquinolin-3-yl)-1-(piperidin-4-yl)-1H-1,2,3-triazole-4-carboxamide], the EC50 in assay [1] (setting [6]) was 2 nM; on recombinant GSK3β kinase (setting [7]), 2670 nM; in assay [2] it was 24 nM; in assay [3], 137 nM; in assay [4], 46 nM; in assay [5], 103 nM.

For the compound `CC(C)Nc1cncc(-c2ccc3cnc(NC(=O)c4cn(C5CCN(CCF)CC5)nn4)cc3c2)n1` [Compound 95, 1-(1-(2-fluoroethyl)piperidin-4-yl)-N-(6-(6-(isopropylamino)pyrazin-2-yl)isoquinolin-3-yl)-1H-1,2,3-triazole-4-carboxamide], the EC50 worked out at 2 nM in assay [1] (setting [6]); 6960 nM at recombinant GSK3β kinase (setting [7]); 34 nM in assay [2]; 211 nM in assay [3]; 1060 nM in assay [4]; 91 nM in assay [5].

In the case of `CC(C)Nc1cncc(-c2ccc3cnc(NC(=O)c4cn(C5CCN(C(C)C)CC5)nn4)cc3c2)n1` [Compound 96, N-(6-(6-(Isopropylamino)pyrazin-2-yl)isoquinolin-3-yl)-1-(1-isopropylpiperidin-4-yl)-1H-1,2,3-triazole-4-carboxamide], the EC50 was determined as 1 nM in assay [1] (setting [6]); 3000 nM on recombinant GSK3β kinase (setting [7]); 28 nM in assay [2]; 312 nM in assay [3]; 91 nM in assay [4]; 152 nM in assay [5].

As for `CC(C)Nc1cncc(-c2ccc3cnc(NC(=O)c4ccnc(N5CCN(C)CC5)c4)cc3c2)n1` [Compound 97, N-(6-(6-(Isopropylamino)pyrazin-2-yl)isoquinolin-3-yl)-2-(4-methylpiperazin-1-yl)isonicotinamide], the EC50 in assay [1] (setting [6]) is 2 nM; on recombinant GSK3β kinase (setting [7]), 6270 nM; in assay [2] it was 7 nM; in assay [3] it was 184 nM; in assay [4] it was 222 nM; in assay [5] it was 311 nM.

For `CN(C)C1CN(c2cc(C(=O)Nc3cc4cc(-c5cncc(NC(C)(C)C)n5)ccc4cn3)ccn2)C1` [Compound 98, N-(6-(6-(tert-Butylamino)pyrazin-2-yl)isoquinolin-3-yl)-2-(3-(dimethylamino)azetidin-1-yl)isonicotinamide], the EC50 in assay [1] (setting [6]) came to 2 nM; on recombinant GSK3β kinase (setting [7]), 4800 nM; in assay [2] it was 24 nM; in assay [3] it was 87 nM; in assay [4], 31 nM; in assay [5], 32 nM.

With `CN1CC=C(c2cc(C(=O)Nc3cc4cc(-c5cncc(NC(C)(C)C)n5)ccc4cn3)ccn2)CC1` [Compound 99, N-(6-(6-(tert-Butylamino)pyrazin-2-yl)isoquinolin-3-yl)-1′-methyl-1′,2′,3′,6′-tetrahydro-[2,4′-bipyridine]-4-carboxamide], the EC50 in assay [1] (setting [6]) was determined as 4 nM; on recombinant GSK3β kinase (setting [7]), 748 nM; in assay [2], 18 nM; in assay [3] it was 125 nM; in assay [4], 43 nM; in assay [5], 31 nM.

Take `CN1CCN(c2cc(C(=O)Nc3cc4cc(-c5cncc(NC(C)(C)C)n5)ccc4cn3)ccn2)CC1` [Compound 100, N-(6-(6-(tert-Butylamino)pyrazin-2-yl)isoquinolin-3-yl)-2-(4-methylpiperazin-1-yl)isonicotinamide]: the concentration giving a half-maximal response (EC50) in assay [1] (setting [6]) stood at 4 nM; at recombinant GSK3β kinase (setting [7]) it was 5170 nM; in assay [2], 51 nM; in assay [3] it was 223 nM; in assay [4], 111 nM; in assay [5], 45 nM.

`CC(C)N1CCN(c2cc(C(=O)Nc3cc4cc(-c5cncc(NC(C)(C)C)n5)ccc4cn3)ccn2)CC1` [Compound 101, N-(6-(6-(tert-Butylamino)pyrazin-2-yl)isoquinolin-3-yl)-2-(4-isopropylpiperazin-1-yl)isonicotinamide]: the EC50 in assay [1] (setting [6]) was 4 nM; at recombinant GSK3β kinase (setting [7]), more than 10000 nM; in assay [2] it was 42 nM; in assay [3], 260 nM; in assay [4] it was 61 nM; in assay [5], 46 nM.

Turning to `CC(C)(C)Nc1cncc(-c2ccc3cnc(NC(=O)c4ccnc(N5CCOCC5)c4)cc3c2)n1` [Compound 102, N-(6-(6-(tert-Butylamino)pyrazin-2-yl)isoquinolin-3-yl)-2-morpholinoisonicotinamide], the EC50 in assay [1] (setting [6]) is 19 nM; at recombinant GSK3β kinase (setting [7]), more than 10000 nM; in assay [2] it was 153 nM; in assay [3] it was 401 nM; in assay [4], 226 nM; in assay [5], 94 nM.

On to `O=C(Nc1cc2cc(-c3cncc(NCC4(F)CNC4)n3)ccc2cn1)C1CC1` [Compound 103, N-(6-(6-(((3-Fluoroazetidin-3-yl)methyl)amino)pyrazin-2-yl)isoquinolin-3-yl)cyclopropanecarboxamide], for which the EC50 in assay [1] (setting [6]) stood at 1 nM; on recombinant GSK3β kinase (setting [7]), 3 nM; in assay [2], 119 nM; in assay [3], 146 nM; in assay [4] it was 253 nM; in assay [5], 547 nM.

In the case of `O=C(Nc1cc2cc(-c3cncc(NCC4(F)CNC4)n3)ccc2cn1)c1ccc(F)cc1` [Compound 104, 4-fluoro-N-(6-(6-(((3-Fluoroazetidin-3-yl)methyl)amino)pyrazin-2-yl)isoquinolin-3-yl)benzamide], the EC50 in assay [1] (setting [6]) is 1 nM; at recombinant GSK3β kinase (setting [7]) it was 4390 nM; in assay [2], 63 nM; in assay [3], 1170 nM; in assay [4], 119 nM; in assay [5], 284 nM.

For `O=C(Nc1cc2cc(-c3cncc(NC4CCNCC4)n3)ccc2cn1)C1CCC1` [Compound 105, N-(6-(6-(Piperidin-4-ylamino)pyrazin-2-yl)isoquinolin-3-yl) cyclobutanecarboxamide], the EC50 in assay [1] was found to be 1 nM; on recombinant GSK3β kinase, 56 nM; in assay [2] it was 261 nM; in assay [3] it was 207 nM; in assay [4], 312 nM; in assay [5] it was 226 nM.

For the compound `O=C(Nc1cc2cc(-c3cncc(NC4CCNCC4)n3)ccc2cn1)C1CC(F)(F)C1` [Compound 106, 3,3-Difluoro-N-(6-(6-(piperidin-4-ylamino)pyrazin-2-yl)isoquinolin-3-yl) cyclobutane-1-carboxamide], the EC50 was found to be 1 nM in assay [1] (setting [6]); 50 nM at recombinant GSK3β kinase (setting [7]); 381 nM in assay [2]; 369 nM in assay [3]; 8420 nM in assay [4]; 27 nM in assay [5].

Regarding `O=C(Nc1cc2cc(-c3cncc(NC4CCNCC4)n3)ccc2cn1)C1CCCC1` [Compound 107, N-(6-(6-(Piperidin-4-ylamino)pyrazin-2-yl)isoquinolin-3-yl) cyclopentanecarboxamide], the EC50 in assay [1] (setting [6]) is 1 nM; on recombinant GSK3β kinase (setting [7]) it was 31 nM; in assay [2], 266 nM; in assay [3], 119 nM; in assay [4], 5910 nM; in assay [5] it was 1270 nM.

On to `O=C(Nc1cc2cc(-c3cncc(NC4CCNCC4)n3)ccc2cn1)C1CCC(F)(F)CC1` [Compound 108, 4,4-Difluoro-N-(6-(6-(piperidin-4-ylamino)pyrazin-2-yl)isoquinolin-3-yl) cyclohexane-1-carboxamide], for which the EC50 in assay [1] (setting [6]) came to 2 nM; on recombinant GSK3β kinase (setting [7]), 92 nM; in assay [2] it was 457 nM; in assay [3], 385 nM; in assay [4], 1560 nM; in assay [5], 3390 nM.

For the compound `O=C(Nc1cc2cc(-c3cncc(NC4CCNCC4)n3)ccc2cn1)c1ccc(F)cc1` [Compound 110, 4-fluoro-N-(6-(6-(piperidin-4-ylamino)pyrazin-2-yl)isoquinolin-3-yl)benzamide], the EC50 worked out at 2 nM in assay [1] (setting [6]); 4320 nM on recombinant GSK3β kinase (setting [7]); 116 nM in assay [2]; 1180 nM in assay [3]; 326 nM in assay [4]; 345 nM in assay [5].

For `O=C(Nc1cc2cc(-c3cncc(N[C@H]4CCNC[C@@H]4F)n3)ccc2cn1)C1CC1` [Compound 111, N-(6-(6-(((3S,4S)-3-Fluoropiperidin-4-yl)amino)pyrazin-2-yl)isoquinolin-3-yl)cyclopropanecarboxamide], the EC50 in assay [1] came to 1 nM; on recombinant GSK3β kinase, 4 nM; in assay [2], 9 nM; in assay [3], 106 nM; in assay [4] it was 18 nM; in assay [5] it was 1520 nM.
